Reference: PMC9822066 (Molecules, 2022)
Where “and” joins values, the source holds several entries; their conditions need not be identical. Equal values may be shown once. Read-outs that look alike come from different tables or passages of the source.

Key:
[1] = PAMPA, triplicate
[2] = Metabolic stability in mouse liver microsomes; assay type: in vitro ADME
Experimental: The metabolic stability of 6 was investigated first in silico with the use of MetaSite 6.0.1 software.
The in silico prediction of the most possible metabolic pathways was conducted by MetaSite 6.0.1. Software (Molecular Discovery Ltd., Borehamwood, UK). […] The compound was incubated for 120 min at 37 °C in TRIS-HCl buffer (pH 7.4) with the addition of NADPH Regeneration System (Promega, Madison, WI, USA). The LC/MS analysis and MS/MS fragmentations were used as a tool for the determination of the substrate remaining and the structures of the metabolites.

mice [3] = experiment: Passive Avoidance Test, scopolamine-induced amnesia; assay type: in vivo; parameters: unit not given here; settings: mean ± SEM
hepatoma HepG2 cells = experiment: Hepatotoxicity, MTS viability of HepG2 cells
Experimental: Doxorubicin (DX) at the concentration of 1 μM was used as the reference cytostatic drug.
A multifunctional reader EnSpire (PerkinElmer, Waltham, MA, USA) was used to measure the absorbance.

mice [4] = experiment: Formalin test; assay type: in vivo; settings: Mus musculus, ip
hMAO B = molecular target: T1, hMAO B (Homo sapiens, UniProt P27338); experiment: Fluorometric MAO assay, hMAO B inhibition; assay type: biochemical; settings: mean ± SEM of two independent experiments, read-out: hMAO B %Inh. at 1 µM
T1 sequence (P27338 1-520): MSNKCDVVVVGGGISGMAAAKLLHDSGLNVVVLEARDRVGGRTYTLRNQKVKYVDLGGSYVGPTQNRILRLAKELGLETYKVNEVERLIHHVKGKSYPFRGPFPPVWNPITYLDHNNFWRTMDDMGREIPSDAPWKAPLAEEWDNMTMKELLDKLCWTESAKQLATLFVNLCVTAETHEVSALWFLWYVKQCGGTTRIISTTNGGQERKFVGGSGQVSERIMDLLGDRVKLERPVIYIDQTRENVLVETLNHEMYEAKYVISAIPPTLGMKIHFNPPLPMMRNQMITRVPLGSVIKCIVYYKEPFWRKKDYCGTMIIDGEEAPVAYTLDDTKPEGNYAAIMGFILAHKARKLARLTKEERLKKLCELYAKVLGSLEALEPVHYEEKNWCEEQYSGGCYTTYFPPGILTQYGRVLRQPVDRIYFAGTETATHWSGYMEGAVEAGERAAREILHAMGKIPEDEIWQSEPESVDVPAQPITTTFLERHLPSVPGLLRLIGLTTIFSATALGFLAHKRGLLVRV

[5] = molecular target: T2, electric eel AChE (eeAChE) (Electrophorus electricus, UniProt O42275); experiment: biochemical; settings: mean ± SEM, triplicate independent experiments; read-out: eeAChE IC50
T2 construct: purchased Sigma–Aldrich (Steinheim, Germany)
T2 sequence (O42275 24-633): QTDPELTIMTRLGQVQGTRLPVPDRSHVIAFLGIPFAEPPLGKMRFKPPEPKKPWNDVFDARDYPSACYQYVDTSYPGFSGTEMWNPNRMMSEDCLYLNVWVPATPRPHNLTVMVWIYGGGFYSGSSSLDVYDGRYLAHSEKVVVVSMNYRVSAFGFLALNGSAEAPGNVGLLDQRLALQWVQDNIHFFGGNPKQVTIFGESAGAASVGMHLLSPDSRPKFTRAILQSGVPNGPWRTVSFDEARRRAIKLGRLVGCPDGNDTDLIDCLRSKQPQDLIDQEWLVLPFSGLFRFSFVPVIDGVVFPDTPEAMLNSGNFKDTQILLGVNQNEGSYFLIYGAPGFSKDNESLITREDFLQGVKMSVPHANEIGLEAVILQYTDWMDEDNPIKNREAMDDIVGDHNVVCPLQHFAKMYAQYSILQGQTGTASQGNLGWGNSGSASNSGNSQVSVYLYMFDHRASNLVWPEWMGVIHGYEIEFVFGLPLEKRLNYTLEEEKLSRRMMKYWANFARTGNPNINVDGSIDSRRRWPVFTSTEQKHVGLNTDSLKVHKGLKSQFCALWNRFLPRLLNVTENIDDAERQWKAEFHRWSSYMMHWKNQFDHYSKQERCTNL

[6] = molecular target: T3, BuChE from human serum (hBuChE) (Homo sapiens, UniProt P06276); experiment: Ellman's colorimetric assay, hBuChE inhibition; assay type: biochemical
T3 construct: Human BuChE from human serum was provided by Vivonics (Bedford, MA, USA); purchased Vivonics (Bedford, MA, USA); host or cells: human serum
T3 sequence (P06276 29-602): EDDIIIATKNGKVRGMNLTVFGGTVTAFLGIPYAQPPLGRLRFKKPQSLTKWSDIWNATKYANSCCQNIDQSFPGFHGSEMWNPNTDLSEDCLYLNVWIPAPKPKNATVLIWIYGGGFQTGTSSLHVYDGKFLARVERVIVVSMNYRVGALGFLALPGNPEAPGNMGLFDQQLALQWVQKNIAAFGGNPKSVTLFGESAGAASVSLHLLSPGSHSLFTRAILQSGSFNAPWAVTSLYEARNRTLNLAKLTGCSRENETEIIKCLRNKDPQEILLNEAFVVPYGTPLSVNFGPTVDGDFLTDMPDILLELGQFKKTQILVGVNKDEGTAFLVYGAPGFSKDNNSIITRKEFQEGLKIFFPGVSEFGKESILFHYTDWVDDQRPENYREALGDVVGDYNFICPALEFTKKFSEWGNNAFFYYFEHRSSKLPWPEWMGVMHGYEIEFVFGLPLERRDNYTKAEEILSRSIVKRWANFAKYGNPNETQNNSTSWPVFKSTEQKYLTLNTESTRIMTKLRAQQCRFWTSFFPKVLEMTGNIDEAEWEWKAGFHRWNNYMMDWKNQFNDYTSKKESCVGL

human H3R = molecular target: T4, human H3R (Homo sapiens, UniProt Q9Y5N1); experiment: [3H]Nα-methylhistamine radioligand binding assay in HEK293 cells stably expressing hH3R
T4 construct: expressed in transfected cells; host or cells: HEK293
T4 sequence (Q9Y5N1 whole entry): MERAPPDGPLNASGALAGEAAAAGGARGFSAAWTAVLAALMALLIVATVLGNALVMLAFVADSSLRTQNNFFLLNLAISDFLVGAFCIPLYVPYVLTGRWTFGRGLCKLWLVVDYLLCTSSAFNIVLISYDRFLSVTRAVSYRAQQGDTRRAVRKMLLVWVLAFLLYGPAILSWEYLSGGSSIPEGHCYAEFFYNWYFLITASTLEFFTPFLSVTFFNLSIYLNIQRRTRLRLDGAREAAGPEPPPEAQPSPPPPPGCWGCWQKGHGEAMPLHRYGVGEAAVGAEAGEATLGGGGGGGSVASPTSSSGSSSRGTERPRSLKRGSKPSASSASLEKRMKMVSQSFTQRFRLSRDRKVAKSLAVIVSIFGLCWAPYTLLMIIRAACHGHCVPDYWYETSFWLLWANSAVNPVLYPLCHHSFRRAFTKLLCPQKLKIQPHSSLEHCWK
Experimental: Final compounds were tested for their H3R affinity in a radioligand binding assay using [^3H]N^α-methylhistamine as radioligand in HEK293 cells stably expressing hH3R [25]. […] Affinity to hH3R stably expressed in HEK293 cells was evaluated in a radioligand binding assay as described previously. […] The radioactivity was counted in a MicroBeta Trilux counter (PerkinElmer). Data were fitted to a one-site curve-fitting equation with Prism 6 (GraphPad Software, San Diego, CA, USA) and Ki values were calculated from IC50 values (from at least three experiments performed in duplicates) according to the Cheng−Prusoff equation [52].

[7] = system: SH-SY5Y neuroblastoma cells; experiment: Neuroprotection against H2O2, MTS viability assay; assay type: cell-based; settings: 10 µM, 300 µM H2O2, 24 h
eqBuChE = eqBuChE (Equus caballus, UniProt P81908); experiment: Kinetic study of eqBuChE inhibition (Lineweaver-Burk, Cornish-Bowden); assay type: biochemical, equine; settings: substrate butyrylthiocholine
Sequence of eqBuChE (P81908 whole entry): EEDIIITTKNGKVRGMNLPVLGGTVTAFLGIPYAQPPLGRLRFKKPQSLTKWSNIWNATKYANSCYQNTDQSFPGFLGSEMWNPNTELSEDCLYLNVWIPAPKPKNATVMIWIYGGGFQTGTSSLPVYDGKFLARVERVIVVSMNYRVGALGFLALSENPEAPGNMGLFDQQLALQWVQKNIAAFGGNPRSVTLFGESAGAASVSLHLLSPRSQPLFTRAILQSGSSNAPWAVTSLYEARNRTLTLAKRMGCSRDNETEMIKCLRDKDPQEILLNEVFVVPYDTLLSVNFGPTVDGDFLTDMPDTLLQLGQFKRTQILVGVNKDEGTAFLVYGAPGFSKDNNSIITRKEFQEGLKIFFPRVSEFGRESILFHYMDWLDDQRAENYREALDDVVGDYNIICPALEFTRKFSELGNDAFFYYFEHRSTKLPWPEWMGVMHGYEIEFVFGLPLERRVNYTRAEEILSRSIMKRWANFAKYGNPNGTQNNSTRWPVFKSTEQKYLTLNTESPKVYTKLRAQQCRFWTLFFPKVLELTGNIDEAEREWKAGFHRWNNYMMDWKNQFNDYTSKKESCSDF
Experimental: (§1) The inhibitor was tested in the concentrations giving enzyme activities between 30% and 80%. For each concentration of the inhibitor, substrate (ATC/BTC) was added at concentrations of 0.3, 0.24, 0.18, 0.12, 0.06, and 0.04 mM in the wells. The stock solutions of ATC and BTC (0.5 mM) were prepared in water and diluted before use. Each experiment was performed in triplicate. Vmax and Km values of the Michaelis−Menten kinetics were calculated by nonlinear regression from substrate−velocity curves. Lineweaver–Burk and Cornish–Bowden plots were calculated using linear regression in GraphPad Prism 5 (GraphPad Software, San Diego, CA, USA).

[8] = system: SH-SY5Y neuroblastoma cells; experiment: Highest non-toxic concentration estimated before the neuroprotection assay; assay type: cell-based
Experimental: […]. however, it was statistically insignificant. […] Statistical significance was calculated against the number of necrotic cells in the H2O2-treated population. Additionally, the MTS test was performed in which the viability of cells was measured.

[9] = system: SH-SY5Y neuroblastoma cells; experiment: Neuroprotection against H2O2, LDH necrosis assay; assay type: cell-based; settings: 10 µM, 300 µM H2O2, 24 h
in vitro = settings: PAMPA
[10] = molecular target: BuChE from equine serum (eqBuChE) (Equus caballus, UniProt P81908); experiment: biochemical; assay type: biochemical; settings: mean ± SEM, triplicate independent experiments
Sequence of BuChE from equine serum (eqBuChE) (P81908 whole entry): as above

[11] = molecular target: T5, human recombinant AChE (hAChE) (Homo sapiens, UniProt P22303); experiment: Ellman's colorimetric assay, hAChE inhibition; assay type: biochemical
T5 construct: purchased Sigma–Aldrich (Steinheim, Germany)
T5 sequence (P22303 32-614): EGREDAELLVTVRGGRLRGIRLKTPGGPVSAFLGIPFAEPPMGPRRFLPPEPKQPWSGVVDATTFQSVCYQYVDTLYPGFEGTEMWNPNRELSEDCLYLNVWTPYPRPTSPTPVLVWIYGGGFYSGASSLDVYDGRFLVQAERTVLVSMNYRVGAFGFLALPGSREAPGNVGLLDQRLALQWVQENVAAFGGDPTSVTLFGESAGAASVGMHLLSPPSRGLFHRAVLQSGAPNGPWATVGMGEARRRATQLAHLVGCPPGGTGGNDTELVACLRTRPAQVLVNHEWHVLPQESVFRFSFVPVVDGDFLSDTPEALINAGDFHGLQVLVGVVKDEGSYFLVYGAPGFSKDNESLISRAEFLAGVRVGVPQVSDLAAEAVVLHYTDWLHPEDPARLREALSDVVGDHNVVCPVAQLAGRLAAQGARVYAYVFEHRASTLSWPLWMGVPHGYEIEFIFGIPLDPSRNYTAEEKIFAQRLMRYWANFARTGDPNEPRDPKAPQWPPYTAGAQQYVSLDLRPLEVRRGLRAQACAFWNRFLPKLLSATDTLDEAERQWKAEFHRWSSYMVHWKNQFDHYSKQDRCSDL

eeAChE = molecular target: T6, eeAChE (Electrophorus electricus, UniProt O42275); experiment: Kinetic study of eeAChE inhibition (Lineweaver-Burk, Cornish-Bowden); assay type: biochemical, electric eel; settings: substrate acetylthiocholine
T6 construct: purchased Sigma–Aldrich (Steinheim, Germany)
T6 sequence (O42275 24-633): as the sequence (O42275 24-633) above
Experimental: as §1

Compound: O=C(O)C(=O)O.O=C(c1ccc(F)cc1)c1ccc(OCCCCCN2CCCCC2)cc1 [Compound 6, (4-Fluorophenyl) (4-((5-(piperidin-1-yl)pentyl)oxy)phenyl)methanone hydrogen oxalate]
- Pe ± SD [1]: 6.3 ± 0.6 10^−6 cm/s
- % biotransformed ([2]; MLMs, 120 min, UPLC): around 34%
- % Remaining ([2]; MLMs, 120 min incubation): 65.95%
- Metabolic Pathway ([2]; MLMs, metabolites M1, M2, M3): reduction of carbonyl group hydroxylation reduction of carbonyl group, hydroxylation
- metabolic stability (in words) ([2]; mouse liver microsomes): moderate metabolic stability
- remaining at 2 h ([2]; mouse, mouse liver microsomes, pH 7.4, MLMs, 120 min incubation): 66%
- latency time in the retention trial (mice [3]; 15 mg/kg i.p. in scopolamine-treated mice): 47.07 ± 17.56
- latency time in the retention trial (mice [3]; 15 mg/kg i.p., without scopolamine): 151.89 ± 5.46
- latency time in the retention trial (mice [3]; 30 mg/kg i.p. in scopolamine-treated mice): 51.56 ± 21.17
- concentration decreasing HepG2 cell viability (hepatoma HepG2 cells; 72 h incubation, MTS): ≥ 10 µM
- concentration range with lack of hepatotoxicity effect (hepatoma HepG2 cells; HepG2 cells): 0.1 to 1 µM
- ED50 (mice [4]; 0–5 min after formalin, read-out: ED50 phase I (acute pain)): 20.9 mg/kg
- ED50 (mice [4]; 15–30 min after formalin, read-out: ED50 phase II (inflammatory pain)): 17.5 mg/kg
- inhibition at 1 µM (hMAO B): 25%
- IC50 [5]: 2310 nM
- IC50 [6]: 1160 nM
- Ki (human H3R): 8 nM
- effect on viability (MTS test) [7]: no increase in the viability
- mechanism of eqBuChE inhibition (eqBuChE): mix type
- highest non-toxic concentration [8]: 10 µM
- effect on necrosis (LDH test) [9]: slight inhibition of the necrosis process
- Papp (in vitro): 6.3 ×10⁻⁶ cm/s
- IC50 [10]: 170 nM and 172 nM
- IC50 [11]: 9590 nM
- mechanism of eeAChE inhibition (eeAChE): non-competitive
